Reference: PubChem BioAssay (NCI)
Where “and” joins values, the source holds several entries; their conditions need not be identical. Equal entries are not always repeated.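 Each compound was tested at five concentrations against cells in 96-well plates for 48 hours. Definition used: TGI = concentration required for complete inhibition of growth.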

Legend:
Test in all cases: DTP human tumour cell line panel, 48 h
HCT-15 colon = tested on: HCT-15 colon
ACHN renal = tested on: ACHN renal
SNB-19 CNS = tested on: SNB-19 CNS
A498 renal = tested on: A498 renal
HCC-2998 colon = tested on: HCC-2998 colon
HOP-62 NSCLC = tested on: HOP-62 NSCLC
T-47D breast = tested on: T-47D breast
MDA-MB-231 breast = tested on: MDA-MB-231 breast
SF-539 CNS = tested on: SF-539 CNS
UO-31 renal = tested on: UO-31 renal
OVCAR-8 ovarian = tested on: OVCAR-8 ovarian
M14 melanoma = tested on: M14 melanoma
COLO 205 colon = tested on: COLO 205 colon
TK-10 renal = tested on: TK-10 renal
NCI/ADR-RES ovarian = tested on: NCI/ADR-RES ovarian
U251 CNS = tested on: U251 CNS
SNB-75 CNS = tested on: SNB-75 CNS
DU-145 prostate = tested on: DU-145 prostate
NCI-H23 lung = tested on: NCI-H23 lung
NCI-H522 lung = tested on: NCI-H522 lung
HCT-116 colon = tested on: HCT-116 colon
SK-MEL-5 melanoma = tested on: SK-MEL-5 melanoma
UACC-62 melanoma = tested on: UACC-62 melanoma
MALME-3M melanoma = tested on: MALME-3M melanoma
MOLT-4 leukemia = tested on: MOLT-4 leukemia
RXF 393 renal = tested on: RXF 393 renal
CAKI-1 renal = tested on: CAKI-1 renal
OVCAR-3 ovarian = tested on: OVCAR-3 ovarian
RPMI-8226 leukemia = tested on: RPMI-8226 leukemia
HS 578T breast = tested on: HS 578T breast
K-562 leukemia = tested on: K-562 leukemia
A549 NSCLC = tested on: A549 NSCLC
IGROV1 ovarian = tested on: IGROV1 ovarian
SN12C renal = tested on: SN12C renal
SF-268 CNS = tested on: SF-268 CNS
LOX IMVI melanoma = tested on: LOX IMVI melanoma
OVCAR-4 ovarian = tested on: OVCAR-4 ovarian
EKVX NSCLC = tested on: EKVX NSCLC
SF-295 CNS = tested on: SF-295 CNS
MDA-N = tested on: MDA-N
KM12 colon = tested on: KM12 colon
OVCAR-5 ovarian = tested on: OVCAR-5 ovarian
MCF7 breast = tested on: MCF7 breast
UACC-257 melanoma = tested on: UACC-257 melanoma
NCI-H226 lung = tested on: NCI-H226 lung
SK-OV-3 ovarian = tested on: SK-OV-3 ovarian
NCI-H460 lung = tested on: NCI-H460 lung
786-0 renal = tested on: 786-0 renal
HT29 colon = tested on: HT29 colon
CCRF-CEM leukemia = tested on: CCRF-CEM leukemia
SW-620 colon = tested on: SW-620 colon
SK-MEL-2 melanoma = tested on: SK-MEL-2 melanoma
PC-3 prostate = tested on: PC-3 prostate
SR leukemia = tested on: SR leukemia
MDA-MB-435 = tested on: MDA-MB-435
BT-549 breast = tested on: BT-549 breast
SK-MEL-28 melanoma = tested on: SK-MEL-28 melanoma
HOP-92 NSCLC = tested on: HOP-92 NSCLC
HL-60(TB) leukemia = tested on: HL-60(TB) leukemia

CC(=O)OCC(OC(C)=O)C(OC(C)=O)C(OC(C)=O)C(C=NN(C(C)=O)S(=O)(=O)c1ccc(/C=C2\NC(=O)N(C)C2=O)cc1)OC(C)=O (configuration not stated)
TGI (HCT-15 colon): 61.9 µM and 67.1 µM
TGI (ACHN renal): > 100 µM
TGI (SNB-19 CNS): > 100 µM
TGI (A498 renal): > 100 µM
TGI (HCC-2998 colon): 32 µM and > 100 µM
TGI (HOP-62 NSCLC): > 100 µM
TGI (T-47D breast): 76.1 µM and 91.3 µM
TGI (MDA-MB-231 breast): > 100 µM and 96.4 µM
TGI (SF-539 CNS): 56.5 µM
TGI (UO-31 renal): > 100 µM
TGI (OVCAR-8 ovarian): > 100 µM and 86.7 µM
TGI (M14 melanoma): > 100 µM
TGI (COLO 205 colon): > 100 µM
TGI (TK-10 renal): 40.4 µM
TGI (NCI/ADR-RES ovarian): > 100 µM
TGI (U251 CNS): 66 µM and > 100 µM
TGI (SNB-75 CNS): > 100 µM
TGI (DU-145 prostate): > 100 µM
TGI (NCI-H23 lung): > 100 µM
TGI (NCI-H522 lung): 72.9 µM
TGI (HCT-116 colon): 47.2 µM and 37.4 µM
TGI (SK-MEL-5 melanoma): 90.3 µM and 86.2 µM
TGI (UACC-62 melanoma): 23.3 µM and 29.5 µM
TGI (MALME-3M melanoma): 37.5 µM and 52.1 µM
TGI (MOLT-4 leukemia): 45.6 µM
TGI (RXF 393 renal): 34.4 µM and 52.1 µM
TGI (CAKI-1 renal): > 100 µM
TGI (OVCAR-3 ovarian): > 100 µM
TGI (RPMI-8226 leukemia): 49.8 µM and 65.8 µM
TGI (HS 578T breast): > 100 µM
TGI (K-562 leukemia): > 100 µM and 57.1 µM
TGI (A549 NSCLC): > 100 µM
TGI (IGROV1 ovarian): 75.2 µM and > 100 µM
TGI (SN12C renal): > 100 µM
TGI (SF-268 CNS): > 100 µM
TGI (LOX IMVI melanoma): 33 µM and 66 µM
TGI (OVCAR-4 ovarian): 95.7 µM and > 100 µM
TGI (EKVX NSCLC): 78.5 µM and > 100 µM
TGI (SF-295 CNS): > 100 µM
TGI (MDA-N): > 100 µM
TGI (KM12 colon): > 100 µM
TGI (OVCAR-5 ovarian): > 100 µM
TGI (MCF7 breast): > 100 µM
TGI (UACC-257 melanoma): > 100 µM
TGI (NCI-H226 lung): 96.5 µM and > 100 µM
TGI (SK-OV-3 ovarian): > 100 µM
TGI (NCI-H460 lung): 50.3 µM and 56.5 µM
TGI (786-0 renal): 80 µM and 68.9 µM
TGI (HT29 colon): > 100 µM
TGI (CCRF-CEM leukemia): 41.6 µM
TGI (SW-620 colon): 83.7 µM and 97.7 µM
TGI (SK-MEL-2 melanoma): 58 µM and > 100 µM
TGI (PC-3 prostate): > 100 µM
TGI (SR leukemia): 44.1 µM and 61 µM
TGI (MDA-MB-435): > 100 µM
TGI (BT-549 breast): 49.4 µM and > 100 µM

Oc1ccccc1/C=N/Nc1nc(N/N=C/c2ccccc2O)nc(N/N=C/c2ccccc2O)n1
TGI (HCT-15 colon): > 100 µM
TGI (ACHN renal): > 100 µM
TGI (SNB-19 CNS): > 100 µM
TGI (A498 renal): > 100 µM
TGI (HCC-2998 colon): > 100 µM
TGI (HOP-62 NSCLC): > 100 µM
TGI (T-47D breast): > 100 µM
TGI (MDA-MB-231 breast): > 100 µM
TGI (SF-539 CNS): > 100 µM
TGI (UO-31 renal): > 100 µM
TGI (OVCAR-8 ovarian): > 100 µM
TGI (M14 melanoma): > 100 µM
TGI (SK-MEL-28 melanoma): > 100 µM
TGI (COLO 205 colon): > 100 µM
TGI (TK-10 renal): > 100 µM
TGI (NCI/ADR-RES ovarian): > 100 µM
TGI (U251 CNS): > 100 µM
TGI (DU-145 prostate): > 100 µM
TGI (NCI-H23 lung): > 100 µM
TGI (NCI-H522 lung): > 100 µM
TGI (HCT-116 colon): > 100 µM
TGI (SK-MEL-5 melanoma): > 100 µM
TGI (UACC-62 melanoma): > 100 µM
TGI (MALME-3M melanoma): > 100 µM
TGI (MOLT-4 leukemia): > 100 µM
TGI (RXF 393 renal): > 100 µM
TGI (CAKI-1 renal): > 100 µM
TGI (OVCAR-3 ovarian): > 100 µM
TGI (HS 578T breast): > 100 µM
TGI (K-562 leukemia): > 100 µM
TGI (HOP-92 NSCLC): 81.7 µM
TGI (A549 NSCLC): > 100 µM
TGI (IGROV1 ovarian): > 100 µM
TGI (SN12C renal): > 100 µM
TGI (SF-268 CNS): > 100 µM
TGI (LOX IMVI melanoma): > 100 µM
TGI (OVCAR-4 ovarian): > 100 µM
TGI (EKVX NSCLC): > 100 µM
TGI (HL-60(TB) leukemia): > 100 µM
TGI (SF-295 CNS): > 100 µM
TGI (MDA-N): > 100 µM
TGI (KM12 colon): > 100 µM
TGI (OVCAR-5 ovarian): > 100 µM
TGI (MCF7 breast): > 100 µM
TGI (UACC-257 melanoma): > 100 µM
TGI (NCI-H226 lung): > 100 µM
TGI (SK-OV-3 ovarian): > 100 µM
TGI (NCI-H460 lung): > 100 µM
TGI (786-0 renal): > 100 µM
TGI (HT29 colon): > 100 µM
TGI (SW-620 colon): > 100 µM
TGI (SK-MEL-2 melanoma): > 100 µM
TGI (PC-3 prostate): > 100 µM
TGI (SR leukemia): > 100 µM
TGI (MDA-MB-435): > 100 µM
TGI (BT-549 breast): > 100 µM
